{
  "source": "paper PMC8965884",
  "about": "“Synthesis and Characterization of Phenylboronic Acid-Modified Insulin With Glucose-Dependent Solubility” (Frontiers in Chemistry, 2022)",
  "origin": "cited, not measured here",
  "source_text": "Insulin glargine, marketed as Lantus®, is a long-acting insulin analog with a 24-h dosing regimen. The additional 2 arginine residues on the C-terminus of the B chain increases its isoelectric point (pI) 6.7, which lowers its solubility at physiological pH and leads to precipitation at the subcutaneous injection site ([Kohn et al., 2007]). Glargine is then released slowly from the precipitate into the bloodstream to establish the long-acting property.",
  "data": [
    {"compound": "OB(O)c1ccccc1", "note": "[PBA, phenylboronic acids]", "values": [
      {"measurement": "pKa", "setting": "non-substituted PBA, ref Yan et al., 2004", "value": 8.8}
    ]},
    {"compound": "Insulin glargine", "values": [
      {"measurement": "isoelectric point (pI)", "setting": "ref Kohn et al., 2007", "value": 6.7}
    ]}
  ]
}
